The source of these data is the supplement of paper PMC10307832.

What all share (assay): relative viability (nuclei count vs DMSO), 5 days (fraction); higher = more cells survive
Compound in the test “Bortezomib + Olaparib”: CC(C)C[C@H](NC(=O)[C@H](Cc1ccccc1)NC(=O)c1cnccn1)B(O)O [Bortezomib] + O=C(c1cc(Cc2n[nH]c(=O)c3ccccc23)ccc1F)N1CCN(C(=O)C2CC2)CC1 [Olaparib] (partner 8 µM)
An outline of the steps: (§1)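 Relative viability divides the nuclei count in treated wells by that in vehicle wells. Lung cancer cell lines were seeded in 1536-well plates, dosed by pin tool the next day, and fixed and stained after 5 days in one step with final 0.05% Triton X-100, 1% formaldehyde and 1 ug/ml Hoechst. Dosing was a single drug or a fixed anchor-drug dose plus five library-drug doses (not always all listed) in √10 steps, and values are medians of duplicate plates imaged at 4×.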

Compound in the test “Bortezomib + Pemetrexed”: CC(C)C[C@H](NC(=O)[C@H](Cc1ccccc1)NC(=O)c1cnccn1)B(O)O [Bortezomib] + Nc1nc2[nH]cc(CCc3ccc(C(=O)N[C@@H](CCC(=O)O)C(=O)O)cc3)c2c(=O)[nH]1 [Pemetrexed] (partner 0.2 µM)
Put shortly:
as §1

Compound in the test “Obatoclax + Alpelisib”: COC1=CC(c2cc3ccccc3[nH]2)=N/C1=C\c1[nH]c(C)cc1C [Obatoclax] + Cc1nc(NC(=O)N2CCC[C@H]2C(N)=O)sc1-c1ccnc(C(C)(C)C(F)(F)F)c1 [Alpelisib] (partner 2 µM)
Put shortly:
as §1

Compound in the test “Obatoclax + Phenformin”: COC1=CC(c2cc3ccccc3[nH]2)=N/C1=C\c1[nH]c(C)cc1C [Obatoclax] + N=C(N)NC(=N)NCCc1ccccc1 [Phenformin] (partner 250 µM)
An outline of the steps:
as §1

In the case of NCI-H650, the relative viability with Bortezomib + Olaparib (first compound 0.0002 µM) came to 0.372; in the test with Bortezomib + Olaparib (first compound 0.000632 µM), 0.435; with Bortezomib + Olaparib (first compound 0.002 µM) it was 0.398; with Bortezomib + Olaparib (first compound 0.006325 µM), 0.165; in the test with Bortezomib + Olaparib (first compound 0.02 µM), 0.102; with Bortezomib + Pemetrexed (first compound 0.0002 µM) it was 0.914. Also, the relative viability with Bortezomib + Pemetrexed (first compound 0.000632 µM) was 0.997; with Bortezomib + Pemetrexed (first compound 0.002 µM), 0.878; with Bortezomib + Pemetrexed (first compound 0.006325 µM), 0.85; in the test with Bortezomib + Pemetrexed (first compound 0.02 µM) it was 0.16; with Obatoclax + Alpelisib (first compound 0.01 µM), 0.975; with Obatoclax + Alpelisib (first compound 0.03162 µM), 1.1. Besides, the relative viability with Obatoclax + Alpelisib (first compound 0.1 µM) came out at 0.811; with Obatoclax + Alpelisib (first compound 0.3162 µM) it was 0.693; in the test with Obatoclax + Alpelisib (first compound 1 µM), 0.446; with Obatoclax + Phenformin (first compound 0.01 µM), 0.454; with Obatoclax + Phenformin (first compound 0.03162 µM), 0.395; with Obatoclax + Phenformin (first compound 0.3162 µM), 0.314. Also, in the test with Obatoclax + Phenformin (first compound 1 µM), the relative viability was 0.288.
